# Tested on: rat spleen cells
# Test: cells
# Format: cell-based
# Settings: 24 h, read-out: Minimum effective concentration (interferon inducing activity)
row,Structure (SMILES),minimal effective concentration [µM]
1,"CCCCOc1nc(N)c2[nH]c(=O)n(CCCCNS(=O)(=O)c3cccc(C(=O)O)c3)c2n1 [Comparison Example 8, 2-butoxy-8-oxo-9-[4-(3-hydroxycarbonylbenzenesulfonamide)butyl]adenine, reference compound]",0.1
2,"CCCCOc1nc(N)c2[nH]c(=O)n(CCCCNC(=O)Nc3cccc(CC(=O)O)c3)c2n1 [Comparison Example 11, 2-butoxy-8-oxo-9-[4-(3-hydroxycarbonylmethylphenylaminocarbonylamino)butyl]adenine, reference compound]",0.1
3,"CCCCOc1nc(N)c2[nH]c(=O)n(CCCCNC(=O)Nc3cccc(CC(=O)OC)c3)c2n1 [Example 11, 2-butoxy-8-oxo-9-[4-(3-methoxycarbonylmethylphenylaminocarbonylamino)butyl]adenine]",0.01
4,"CCCCOc1nc(N)c2[nH]c(=O)n(CCCCNC(=O)Nc3cccc(C(=O)O)c3)c2n1 [Comparison Example 10, 2-butoxy-8-oxo-9-[4-(3-hydroxycarbonylphenylaminocarbonylamino)butyl]adenine, reference compound]",0.3
5,"CCCCOc1nc(N)c2nc(O)n(CCCCNS(=O)(=O)c3cccc(CC(=O)O)c3)c2n1 [Comparison Example 9, 2-butoxy-8-oxo-9-[4-(3-hydroxycarbonylmethylbenzenesulfonamide)butyl]adenine, reference compound]",0.3
6,"CCCCOc1nc(N)c2[nH]c(=O)n(CCOc3ccccc3C(=O)O)c2n1 [Comparison Example 3, 2-butoxy-8-oxo-9-[2-(2-hydroxycarbonylphenoxy)ethyl]adenine, reference compound]",0.1
7,"CCCCOc1nc(N)c2[nH]c(=O)n(CCOc3cccc(CC(=O)O)c3)c2n1 [Comparison Example 2, 2-butoxy-8-oxo-9-[2-(3-hydroxycarbonylmethylphenoxy)ethyl]adenine, reference compound]",0.03
8,"CCCCOc1nc(N)c2[nH]c(=O)n(CCOc3cccc(C(=O)O)c3)c2n1 [Comparison Example 1, 2-butoxy-8-oxo-9-[2-(3-hydroxycarbonylphenoxy)ethyl]adenine, reference compound]",0.01
9,"CCCCOc1nc(N)c2[nH]c(=O)n(CCOc3ccccc3CC(=O)O)c2n1 [Comparison Example 4, 2-butoxy-8-oxo-9-[2-(2-hydroxycarbonylmethylphenoxy)ethyl]adenine, reference compound]",0.1

# Tested on: not given
# Test: not given
# Settings: not given
row,Structure (SMILES),melting point [°C]
1,"CCCCOc1nc(N)c2[nH]c(=O)n(CCCCN(CCOC)S(=O)(=O)c3cccc(CC(=O)O)c3)c2n1 [Example 2-16, (3-{[[4-(6-Amino-2-butoxy-8-oxo-7,8-dihydro-9H-purin-9-yl)butyl](2-methoxyethyl)amino]sulfonyl}phenyl)acetic acid]",171 to 172
2,"CCCCOc1nc(N)c2[nH]c(=O)n(CCNc3cccc(CC(=O)OC)c3)c2n1 [Example 2-41, Methyl (3-{[2-(6-amino-2-butoxy-8-oxo-7,8-dihydro-9H-purin-9-yl)ethyl]amino}phenyl)acetate]",222 to 223
3,"CCCCOc1nc(N)c2[nH]c(=O)n(CCSc3cccc(CC(=O)OC)c3)c2n1 [Example 2-39, Methyl (3-{[2-(6-amino-2-butoxy-8-oxo-7,8-dihydro-9H-purin-9-yl)ethyl]thio}phenyl)acetate]",232 to 233
4,"CCCCOc1nc(N)c2[nH]c(=O)n(CCCCN(CCCN3CCCC3=O)Cc3cccc(CC(=O)OC)c3)c2n1 [Example 2-33, Methyl [3-({[4-(6-amino-2-butoxy-8-oxo-7,8-dihydro-9H-purin-9-yl)butyl][3-(2-oxopyrrolidin-1-yl)propyl]amino}methyl)phenyl]acetate]",115 to 116
5,"CCCCOc1nc(N)c2[nH]c(=O)n(CCCNCc3cccc(C(=O)OC)c3)c2n1 [Example 2-3, Methyl 3-({[3-(6-amino-2-butoxy-8-oxo-7,8-dihydro-9H-purin-9-yl)propyl]amino}methyl)benzoate]",214 to 218
6,"CCCCOc1nc(N)c2[nH]c(=O)n(CCSc3cccc(CC(=O)O)c3)c2n1 [Example 2-40, (3-{[2-(6-Amino-2-butoxy-8-oxo-7,8-dihydro-9H-purin-9-yl)ethyl]thio}phenyl)acetic acid]",205 to 207
7,"CCCCOc1nc(N)c2[nH]c(=O)n(CCCNS(=O)(=O)c3cccc(CC(=O)OC)c3)c2n1 [Example 2-21, Methyl [3-({[3-(6-amino-2-butoxy-8-oxo-7,8-dihydro-9H-purin-9-yl)propyl]amino}sulfonyl)phenyl]acetate]",218 to 219
8,"CCCCOc1nc(N)c2[nH]c(=O)n(CCN(C)Cc3cccc(CC(=O)O)c3)c2n1 [Example 2-50, (3-{[[2-(6-Amino-2-butoxy-8-oxo-7,8-dihydro-9H-purin-9-yl)ethyl](methyl)amino]methyl}phenyl)acetic acid]",164 to 166
9,"CCCCOc1nc(N)c2[nH]c(=O)n(CCCCN(CCN3CCCC3)S(=O)(=O)c3cccc(CC(=O)O)c3)c2n1 [Example 2-14, (3-{[[4-(6-Amino-2-butoxy-8-oxo-7,8-dihydro-9H-purin-9-yl)butyl](2-pyrrolidin-1-ylethyl)amino]sulfonyl}phenyl)acetic acid]",192 to 193
10,"CCCCOc1nc(N)c2[nH]c(=O)n(CCCCN(CC(C)(C)O)S(=O)(=O)c3cccc(CC(=O)OC)c3)c2n1 [Example 2-22, Methyl (3-{[[4-(6-amino-2-butoxy-8-oxo-7,8-dihydro-9H-purin-9-yl)butyl](2-hydroxy-2-methylpropyl)amino]sulfonyl}phenyl)acetate]",192 to 193
11,"CCCCOc1nc(N)c2[nH]c(=O)n(CCCCN(CC(C)(C)CN(C)C)S(=O)(=O)c3cccc(CC(=O)O)c3)c2n1 [Example 2-20, [3-({[4-(6-Amino-2-butoxy-8-oxo-7,8-dihydro-9H-purin-9-yl)butyl][3-(dimethylamino)-2,2-dimethylpropyl]amino}sulfonyl)phenyl]acetic acid]",175 to 176
12,"CCCCOc1nc(N)c2[nH]c(=O)n(CCCCN(CCOC)S(=O)(=O)c3cccc(CC(=O)OC)c3)c2n1 [Example 2-15, Methyl (3-{[[4-(6-amino-2-butoxy-8-oxo-7,8-dihydro-9H-purin-9-yl)butyl](2-methoxyethyl)amino]sulfonyl}phenyl)acetate]",182 to 183
13,"CCCCOc1nc(N)c2[nH]c(=O)n(CCCCN(C)S(=O)(=O)c3cccc(CC(=O)O)c3)c2n1 [Example 2-18, (3-{[[4-(6-Amino-2-butoxy-8-oxo-7,8-dihydro-9H-purin-9-yl)butyl](methyl)amino]sulfonyl}phenyl)acetic acid]",171 to 172
14,"CCCCOc1nc(N)c2[nH]c(=O)n(CCS(=O)(=O)c3cccc(CC(=O)OC)c3)c2n1 [Example 2-48, Methyl (3-{[2-(6-amino-2-butoxy-8-oxo-7,8-dihydro-9H-purin-9-yl)ethyl]sulfonyl}phenyl)acetate]",246 to 247
15,"CCCCOc1nc(N)c2[nH]c(=O)n(CCCCN(CCN3CCOCC3)Cc3cccc(CC(=O)OC)c3)c2n1 [Example 2-35, Methyl (3-{[[4-(6-amino-2-butoxy-8-oxo-7,8-dihydro-9H-purin-9-yl)butyl](2-morpholin-4-ylethyl)amino]methyl}phenyl)acetate]",189 to 190
16,"CCCCOc1nc(N)c2[nH]c(=O)n(CCCCN(Cc3cccc(CC(=O)O)c3)CC(C)(C)CN(C)C)c2n1 [Example 2-32, [3-({[4-(6-Amino-2-butoxy-8-oxo-7,8-dihydro-9H-purin-9-yl)butyl][3-(dimethylamino)-2,2-dimethylpropyl]amino}methyl)phenyl]acetic acid]",189 to 190
17,"CCCCOc1nc(N)c2[nH]c(=O)n(CCCCNS(=O)(=O)c3ccc(CCC(=O)OC)cc3)c2n1 [Example 2-11, Methyl 3-[4-({[4-(6-amino-2-butoxy-8-oxo-7,8-dihydro-9H-purin-9-yl)butyl]amino}sulfonyl)phenyl]propanoate]",150 to 152
18,"CCCCOc1nc(N)c2[nH]c(=O)n(CCCNc3cccc(CC(=O)OC)c3)c2n1 [Example 2-42, Methyl (3-{[3-(6-amino-2-butoxy-8-oxo-7,8-dihydro-9H-purin-9-yl)propyl]amino}phenyl)acetate]",208 to 209
19,"CCCCOc1nc(N)c2[nH]c(=O)n(CCCNc3cccc(CC(=O)O)c3)c2n1 [Example 2-43, (3-{[3-(6-Amino-2-butoxy-8-oxo-7,8-dihydro-9H-purin-9-yl)propyl]amino}phenyl)acetic acid]",247
20,"CCCCOc1nc(N)c2[nH]c(=O)n(CCCCNS(=O)(=O)c3ccc(CCC(=O)O)cc3)c2n1 [Example 2-12, 3-[4-({[4-(6-Amino-2-butoxy-8-oxo-7,8-dihydro-9H-purin-9-yl)butyl]amino}sulfonyl)phenyl]propionic acid]",210 to 211

# From patent publication US8969362B2 (priority 2004, dated 2015)
